Measured values taken from PubChem BioAssay AID588786 (The Scripps Research Institute Molecular Screening Center, 2011).
The source made the active and inactive calls. How the calls were made is not given here.

Target: SARS coronavirus 3C-like protease (3CLpro)
Assay: SARS 3CLpro protease inhibitor potency, late-stage follow-up, biochemical, fluorescence, dose response, set 4 (AID 588786)
Settings: recombinant 3CLpro, fluorogenic peptide cleavage

| Compound | IC50 |
| --- | --- |
| Cc1noc(C)c1-c1ccc(N(C(=O)c2ccco2)C(C(=O)NC(C)(C)C)c2cccnc2)cc1 (stereo not given) | inactive |
| CC(C)(C)NC(=O)C(c1cccnc1)N(C(=O)c1ccco1)c1ccc(-c2cccn2C(=O)OC(C)(C)C)cc1 (stereo not given) | inactive |
| CC(C)(C)NC(=O)C(c1cccnc1)N(C(=O)c1ccco1)c1ccc(-c2cncnc2)cc1 (stereo not given) | 4.5 µM |
| COc1cccc(Oc2ccc(N(C(=O)c3ccco3)C(C(=O)NC(C)(C)C)c3cccnc3)cc2)c1 (stereo not given) | inactive |
| CC(C)(C)c1ccc(N(Cc2cccnc2)C(=O)c2cnc[nH]2)cc1 | inactive |
| CC(C)(C)NC(=O)C(c1cccnc1)N(C(=O)c1ccco1)c1ccc(-c2cccnc2)cc1 (stereo not given) | inactive |
| CC(C)(C)NC(=O)C(c1cccnc1)N(C(=O)c1ccco1)c1ccc(-c2cccc(F)c2F)cc1 (stereo not given) | 3.2 µM |
| CC(C)(C)NC(=O)C(c1cccnc1)N(C(=O)c1ccco1)c1ccc(OCc2ccccc2)cc1 (stereo not given) | inactive |
| CC(C)(C)NC(=O)C(c1cccnc1)N(C(=O)c1ccco1)c1ccc(-c2ccccc2)cc1 (stereo not given) | 2.3 µM |
| CC(C)(C)NC(=O)C(c1cccnc1)N(C(=O)c1ccco1)c1ccc(I)cc1 (stereo not given) | inactive |
